Experimental findings from patent publication US9493436B2, “Tyrosine phosphatase inhibitors and uses thereof to modulate the activity of enzymes involved in the pathology of Mycobacterium tuberculosis” (priority 2011, dated 2016) are described below.

Where only a bound is given, the exact number is not on record here.

The first experiment concerns the target T1, Lyp (Homo sapiens, UniProt Q9Y2R2).
T1 sequence (Q9Y2R2 1-807): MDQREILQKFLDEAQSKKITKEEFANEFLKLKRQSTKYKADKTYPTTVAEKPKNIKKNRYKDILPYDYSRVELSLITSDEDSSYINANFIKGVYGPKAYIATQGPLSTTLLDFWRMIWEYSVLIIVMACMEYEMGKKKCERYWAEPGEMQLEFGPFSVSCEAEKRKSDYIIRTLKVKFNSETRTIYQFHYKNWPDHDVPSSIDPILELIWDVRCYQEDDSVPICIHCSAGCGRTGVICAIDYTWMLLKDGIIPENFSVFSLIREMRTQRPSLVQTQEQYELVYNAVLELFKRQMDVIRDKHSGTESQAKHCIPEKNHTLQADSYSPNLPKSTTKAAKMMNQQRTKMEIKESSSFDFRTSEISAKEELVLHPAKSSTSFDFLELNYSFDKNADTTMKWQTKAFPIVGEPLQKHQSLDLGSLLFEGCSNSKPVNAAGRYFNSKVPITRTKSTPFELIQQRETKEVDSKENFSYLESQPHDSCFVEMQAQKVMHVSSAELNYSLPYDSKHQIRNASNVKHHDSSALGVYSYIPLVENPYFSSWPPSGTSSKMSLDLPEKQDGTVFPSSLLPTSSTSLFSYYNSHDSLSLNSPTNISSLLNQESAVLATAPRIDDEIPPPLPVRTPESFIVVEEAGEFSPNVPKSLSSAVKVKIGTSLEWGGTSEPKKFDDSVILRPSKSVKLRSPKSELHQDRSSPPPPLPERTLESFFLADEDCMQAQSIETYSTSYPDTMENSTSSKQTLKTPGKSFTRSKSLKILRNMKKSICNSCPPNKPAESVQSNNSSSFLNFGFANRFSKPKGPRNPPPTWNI
Put plainly: biochemical. The class given is biochemical.
Conditions: not given
With `O=C(O)COc1cccc(-c2oc3cc(O)c(C(=O)O)cc3c2C#Cc2cccc(Cl)c2)c1` [49 (Core 74)], the “loss of activity compare with compound 133 for Lyp” value came to 15 fold. The term IC50 denotes the midpoint of a concentration-inhibition curve. Regarding `O=C(O)COc1ccc(-c2oc3cc(O)c(C(=O)O)cc3c2C#Cc2cccc(Cl)c2)cc1` [50 (Core 75)], the IC50 came to 7.6 ± 0.4 µM and the “loss of activity compare with compound 133 for Lyp” value is recorded as 7.8 fold.

For the next experiment, the target named is T2, mPTPB (Mycobacterium tuberculosis, UniProt I6WXK4).
T2 construct: The full-length mPTPB with a N-terminal His6-tag was expressed and purified; His6 (N); made in house; host or cells: E. coli BL21/DE3 (pET28b-mPTPB)
T2 sequence (I6WXK4 1-276): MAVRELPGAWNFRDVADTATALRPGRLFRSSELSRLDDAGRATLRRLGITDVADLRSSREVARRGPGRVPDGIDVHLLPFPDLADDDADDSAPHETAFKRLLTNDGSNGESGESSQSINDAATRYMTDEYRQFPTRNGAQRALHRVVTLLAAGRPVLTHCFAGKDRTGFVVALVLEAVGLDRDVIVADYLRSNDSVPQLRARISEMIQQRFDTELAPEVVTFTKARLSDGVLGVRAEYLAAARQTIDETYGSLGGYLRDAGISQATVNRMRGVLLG
Put plainly: biochemical. It counts as biochemical. The following applies: 1 μM, library 13 screened in situ.
For the compound `Cn1c(-c2ccccc2C(F)(F)F)c(C(=O)CCNC(=O)c2cccc(I)c2)c2cc(C(=O)O)c(O)cc21` [Compound 213b, 6-hydroxy-3-(3-(3-iodobenzamido)propanoyl)-1-methyl-2-(2-(trifluoromethyl)phenyl)-1H-indole-5-carboxylic acid], the “In % @ 1 μM (mPTPB)” value is listed as 52%. Still for that read-out and setting: under `CC(C)[C@H]1CC[C@H](C)C[C@@H]1OCC(=O)NCCC(=O)c1c(-c2ccccc2C(F)(F)F)n(C)c2cc(O)c(C(=O)O)cc12` [Compound 213c, 6-hydroxy-3-(3-(2-(((1S,2R,5S)-2-isopropyl-5-methylcyclohexyl)oxy)acetamido)propanoyl)-1-methyl-2-(2-(trifluoromethyl)phenyl)-1H-indole-5-carboxylic acid] stands 5%; under `Cn1c(-c2ccccc2C(F)(F)F)c(C(=O)CCNC(=O)c2ccc3nc(-c4ccccc4Br)[nH]c3c2)c2cc(C(=O)O)c(O)cc21` [Compound 213d, 3-(3-(2-(2-bromophenyl)-1H-benzo[d]imidazole-6-carboxamido)propanoyl)-6-hydroxy-1-methyl-2-(2-(trifluoromethyl)phenyl)-1H-indole-5-carboxylic acid], 10%. `CC(=O)NCCC(=O)c1c(-c2ccccc2C(F)(F)F)n(C)c2cc(O)c(C(=O)O)cc12` [Compound 213e, 3-(3-acetamidopropanoyl)-6-hydroxy-1-methyl-2-(2-(trifluoromethyl)phenyl)-1H-indole-5-carboxylic acid]: the “In % @ 1 μM (mPTPB)” value amounted to 0%.

The same experiment, now with this note: pNPP substrate, pH 7.0, 25° C.; read-out: IC50 (μM) against mPTPB.
As to `O=C(O)c1cc2c(C#Cc3ccc(Oc4ccccc4)cc3)c(-c3ccccc3)oc2cc1O` [34 (L01Z12)], the IC50 amounted to 0.043 µM. Same read-out and setting: under `C#Cc1c(-c2ccc(OC(F)(F)F)cc2)oc2cc(O)c(C(=O)O)cc12` [35 (Core73)] stands 1.71 µM; under `O=C(O)c1cc2c(C#Cc3cccc(Cl)c3)c(-c3ccc(OC(F)(F)F)cc3)oc2cc1O` [36 (L73Z01)], 0.082 µM; under `O=C(O)c1cc2c(C#Cc3ccc(Cl)c(Cl)c3)c(-c3ccc(OC(F)(F)F)cc3)oc2cc1O` [37 (L73Z02)], 0.12 µM. Take `O=C(O)c1cc2c(C#Cc3ccsc3)c(-c3ccc(OC(F)(F)F)cc3)oc2cc1O` [38 (L73Z03)]: the IC50 amounted to 0.35 µM. The same measure, in the same setting: under `O=C(O)COc1cccc(C#Cc2c(-c3ccc(OC(F)(F)F)cc3)oc3cc(O)c(C(=O)O)cc23)c1` [39 (L73Z05)] stands 0.19 µM; under `C#Cc1c(-c2ccc(Oc3ccccc3)cc2)oc2cc(O)c(C(=O)O)cc12` [40 (Core69)], 2.3 µM; under `C#Cc1c(-c2ccc(-c3ccccc3)cc2)oc2cc(O)c(C(=O)O)cc12` [41 (Core71)], 0.85 µM. Still for that read-out and setting: under `C#Cc1c(-c2cccc(Cl)c2)oc2cc(O)c(C(=O)O)cc12` [42 (Core72)] stands 3.1 µM; under `O=C(O)c1cc2c(C=Cc3cc(F)cc(F)c3)c(-c3ccccc3)oc2cc1O` [43 (L01Z25)], 1.2 µM. The same measure, in the same setting: with `O=C(O)c1cc2c(C=Cc3cccc(C(F)(F)F)c3)c(-c3ccccc3)oc2cc1O` [44 (L01X09)] the figure was 1.2 µM.

Take `O=C(O)COc1cccc(-c2oc3cc(O)c(C(=O)O)cc3c2C#Cc2cccc(Cl)c2)c1` [49 (Core 74)]: the IC50 is 0.076 µM.

Turning to `O=C(O)COc1ccc(-c2oc3cc(O)c(C(=O)O)cc3c2C#Cc2cccc(Cl)c2)cc1` [50 (Core 75)], the IC50 is 0.101 µM. The same measure, in the same setting: under `Cn1c(-c2cccc(C(F)(F)F)c2)c(I)c2cc(C(=O)O)c(O)cc21` [Compound 207b, 6-hydroxy-3-iodo-1-methyl-2-(3-(trifluoromethyl)phenyl)-1H-indole-5-carboxylic acid] stands 2.2 ± 0.2 µM. The same measure, in the same setting: with `Cn1c(-c2ccc(-c3ccccc3)cc2)c(I)c2cc(C(=O)O)c(O)cc21` [Compound 207c, 2-([1,1′-biphenyl]-4-yl)-6-hydroxy-3-iodo-1-methyl-1H-indole-5-carboxylic acid] the figure was 2.4 ± 0.2 µM. On the same count and under the same terms, under `Cn1c(C2CCCCC2)c(I)c2cc(C(=O)O)c(O)cc21` [Compound 207d, 2-cyclohexyl-6-hydroxy-3-iodo-1-methyl-1H-indole-5-carboxylic acid] stands 3.6 ± 0.1 µM; under `Cn1c(-c2ccc(OC(F)(F)F)cc2)c(I)c2cc(C(=O)O)c(O)cc21` [Compound 207e, 6-hydroxy-3-iodo-1-methyl-2-(4-(trifluoromethoxy)phenyl)-1H-indole-5-carboxylic acid], 5.5 ± 0.5 µM; under `Cn1c(-c2ccc(C(F)(F)F)cc2)c(I)c2cc(C(=O)O)c(O)cc21` [Compound 207f, 6-hydroxy-3-iodo-1-methyl-2-(4-(trifluoromethyl)phenyl)-1H-indole-5-carboxylic acid], 7 ± 1 µM. As for `Cn1c(-c2ccccc2)c(I)c2cc(C(=O)O)c(O)cc21` [Compound 207g, 6-hydroxy-3-iodo-1-methyl-2-phenyl-1H-indole-5-carboxylic acid], the IC50 amounted to 11 ± 1 µM. Same read-out and setting: under `Cn1c(-c2cccc(F)c2)c(I)c2cc(C(=O)O)c(O)cc21` [Compound 207h, 2-(3-fluorophenyl)-6-hydroxy-3-iodo-1-methyl-1H-indole-5-carboxylic acid] stands 11 ± 1 µM. The same measure, in the same setting: with `Cn1c(-c2ccc(F)cc2)c(I)c2cc(C(=O)O)c(O)cc21` [Compound 207i, 2-(4-fluorophenyl)-6-hydroxy-3-iodo-1-methyl-1H-indole-5-carboxylic acid] the figure was 12 ± 2 µM. For the compound `Cn1c(-c2ccccc2F)c(I)c2cc(C(=O)O)c(O)cc21` [Compound 207j, 2-(2-fluorophenyl)-6-hydroxy-3-iodo-1-methyl-1H-indole-5-carboxylic acid], the IC50 is 16 ± 2 µM. Regarding `Cn1c(-c2cccc(O)c2)c(I)c2cc(C(=O)O)c(O)cc21` [Compound 207k, 6-hydroxy-2-(3-hydroxyphenyl)-3-iodo-1-methyl-1H-indole-5-carboxylic acid], the IC50 was 18 ± 1 µM. Consider `Cn1c(-c2ccccc2C(F)(F)F)c(C#Cc2cccc(C(F)(F)F)c2)c2cc(C(=O)O)c(O)cc21` [Compound 209b, 6-hydroxy-1-methyl-2-(2-(trifluoromethyl)phenyl)-3-((3-(trifluoromethyl)phenyl)ethynyl)-1H-indole-5-carboxylic acid], for which the IC50 was found to be 0.23 ± 0.04 µM. Still for that read-out and setting: with `Cn1c(-c2ccccc2C(F)(F)F)c(C#Cc2ccccc2C(F)(F)F)c2cc(C(=O)O)c(O)cc21` [Compound 209c, 6-hydroxy-1-methyl-2-(2-(trifluoromethyl)phenyl)-3-((2-(trifluoromethyl)phenyl)ethynyl)-1H-indole-5-carboxylic acid] the figure was 0.3 ± 0.05 µM; with `Cn1c(-c2ccccc2C(F)(F)F)c(C#Cc2ccc(Oc3ccccc3)cc2)c2cc(C(=O)O)c(O)cc21` [Compound 209d, 6-hydroxy-1-methyl-3-((4-phenoxyphenyl)ethynyl)-2-(2-(trifluoromethyl)phenyl)-1H-indole-5-carboxylic acid], 0.46 ± 0.06 µM.

On to `Cn1c(-c2ccccc2C(F)(F)F)c(C#Cc2ccc(C(F)(F)F)cc2)c2cc(C(=O)O)c(O)cc21` [Compound 209e, 6-hydroxy-1-methyl-2-(2-(trifluoromethyl)phenyl)-3-((4-(trifluoromethyl)phenyl)ethynyl)-1H-indole-5-carboxylic acid], for which the IC50 was 0.6 ± 0.1 µM. Turning to `Cn1c(-c2ccccc2C(F)(F)F)c(C#Cc2ccc(OC(F)(F)F)cc2)c2cc(C(=O)O)c(O)cc21` [Compound 209f, 6-hydroxy-1-methyl-3-((4-(trifluoromethoxy)phenyl)ethynyl)-2-(2-(trifluoromethyl)phenyl)-1H-indole-5-carboxylic acid], the IC50 was 0.85 ± 0.2 µM. Same read-out and setting: with `Cn1c(-c2ccccc2C(F)(F)F)c(C(=O)CCNC(=O)c2cccc(I)c2)c2cc(C(=O)O)c(O)cc21` [Compound 213b, 6-hydroxy-3-(3-(3-iodobenzamido)propanoyl)-1-methyl-2-(2-(trifluoromethyl)phenyl)-1H-indole-5-carboxylic acid] the figure was 0.68 ± 0.04 µM. Same read-out and setting: under `CC(C)[C@H]1CC[C@H](C)C[C@@H]1OCC(=O)NCCC(=O)c1c(-c2ccccc2C(F)(F)F)n(C)c2cc(O)c(C(=O)O)cc12` [Compound 213c, 6-hydroxy-3-(3-(2-(((1S,2R,5S)-2-isopropyl-5-methylcyclohexyl)oxy)acetamido)propanoyl)-1-methyl-2-(2-(trifluoromethyl)phenyl)-1H-indole-5-carboxylic acid] stands 3.3 ± 0.1 µM; under `Cn1c(-c2ccccc2C(F)(F)F)c(C(=O)CCNC(=O)c2ccc3nc(-c4ccccc4Br)[nH]c3c2)c2cc(C(=O)O)c(O)cc21` [Compound 213d, 3-(3-(2-(2-bromophenyl)-1H-benzo[d]imidazole-6-carboxamido)propanoyl)-6-hydroxy-1-methyl-2-(2-(trifluoromethyl)phenyl)-1H-indole-5-carboxylic acid], 5.2 ± 0.2 µM. Same read-out and setting: with `CC(=O)NCCC(=O)c1c(-c2ccccc2C(F)(F)F)n(C)c2cc(O)c(C(=O)O)cc12` [Compound 213e, 3-(3-acetamidopropanoyl)-6-hydroxy-1-methyl-2-(2-(trifluoromethyl)phenyl)-1H-indole-5-carboxylic acid] the figure was over 20 µM.

The same experiment, now with this note: read-out: IC50 for mPTPB.
Regarding `CC(C)c1ccc(NC(=O)COc2cccc(-c3oc4cc(O)c(C(=O)O)cc4c3C#Cc3cccc(Cl)c3)c2)cc1`, the IC50 was about 0.025 µM.
